# Laboratory results: US9844536B2, “3-(1H-imidazo[4,5-C]pyridin-2-yl)-1H-pyrazolo[3,4-C]pyridine and therapeutic uses thereof” (Samumed, LLC, priority 2014, dated 2017)
# Columns and labels:
# [1] = system: Wnt pathway (Sp5-Luc reporter, SW480 cells); experiment: Sp5-Luc reporter gene screening assay for Wnt activity in SW480 colon carcinoma cells; assay type: cell-based; conditions: Homo sapiens
# Outline: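 IC50 values come from variable-slope four-parameter fits of luciferase signal normalized to DMSO wells. Stable Sp5-Luc reporter SW480 colon carcinoma cells were exposed to compounds in a 3-fold dilution series (source plates from 10 mM stock) for forty-two hours at 37 °C.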
# LL29 cells = experiment: Inhibition of the fibrotic process (αSMA staining) in TGF-β1 treated primary human fibroblasts from IPF patients; assay type: cell-based; conditions: Fibroblast, 96 h, TGF-β1 20 ng/mL, 4 days, dose-response 10 μM to 1.87 nM, read-out: Inhibition of fibrosis EC50
# From the text: The above synthesized compounds were screened using primary human fibroblasts (derived from IPF patients) treated with TGF-β1 to determine their ability to inhibit the fibrotic process.
# Primary human fibroblasts derived from IPF patients (LL29 cells) [^1Xiaoqiu Liu, et. al., “Fibrotic Lung Fibroblasts Show Blunted Inhibition by cAMP Due to Deficient cAMP Response Element-Binding Protein Phosphorylation”, Journal of Pharmacology and Experimental Therapeutics (2005), 315(2), 678-687; ^2Watts, K. L., et. al., “RhoA signaling modulates cyclin D1 expression in human lung fibroblasts; implications for idiopathic pulmonary fibrosis”, Respiratory Research (2006), 7(1), 88] were obtained from American Type Culture Collection (ATCC) and expanded in F12 medium supplemented with 15% Fetal Bovine Serum and Penicillin/Streptomycin.
# Each compound was dissolved in DMSO as a 10 mM stock and used to prepare compound source plates. Serial dilution (1:2, 11-point dose-response curves from 10 μM to 1.87 nM) and compound transfer was performed using the ECHO 550 (Labcyte, Sunnyvale, Calif.) into 384-well clear bottom assay plates (Greiner Bio-One) with appropriate DMSO backfill for a final DMSO concentration of 0.1%. LL29 cells were plated at 1,500 cells/well in 80 μl/well F12 medium supplemented with 1% Fetal Bovine Serum. One hour after addition of the cells, TGF-β1 (Peprotech; 20 ng/mL) was added to the plates to induce fibrosis (ref. 1 and 2 above). Wells treated with TGF-β1 and containing DMSO were used as controls. Cells were incubated at 37° C. and 5% CO2 for 4 days. Following incubation for 4 days, SYTOX green nucleic acid stain (Life Technologies [Thermo Fisher Scientific]) was added to the wells at a final concentration of 1 uM and incubated at room temperature for 30 min. Cells were then fixed using 4% formaldehyde (Electron Microscopy Sciences), washed 3 times with PBS followed by blocking and permeabilization using 3% Bovine Serum Albumin (BSA; Sigma) and 0.3% Triton X-100 (Sigma) in PBS. Cells were then stained with antibody specific to α-smooth muscle actin (αSMA; Abcam) (ref. 1 and 2 above) in 3% Bovine Serum Albumin (BSA; Sigma) and 0.3% Triton X-100 (Sigma) in PBS, and incubated overnight at 4° C. Cells were then washed 3 times with PBS, followed by incubation with Alexa Flor-647 conjugated secondary antibody (Life Technologies [Thermo Fisher Scientific]) and DAPI at room temperature for 1 hour. Cells were then washed 3 times with PBS and plates were sealed for imaging. αSMA staining was imaged by excitation at 630 nm and emission at 665 nm and quantified using the Compartmental Analysis program on the CellInsight CX5 (Thermo Scientific). Dead or apoptotic cells were excluded from analysis based on positive SYTOX green staining. % of total cells positive for αSMA were counted in each well and normalized to the average of 11 wells treated with TGF-31 on the same plate using Dotmatics' Studies Software. The normalized averages (fold change over untreated) of 3 replicate wells for each compound concentration were used to create dose-responses curves and EC50 values were calculated using non-linear regression curve fit in the Dotmatics' Studies Software. The EC50 values are reported.
IC50 [1],Compound,EC50 (LL29 cells)
80.4 nM,"CCNCc1cncc(-c2cc3c(-c4nc5c(-c6ccoc6)nccc5[nH]4)n[nH]c3cn2)c1 [Compound 292, N-((5-(3-(4-(Furan-3-yl)-1H-imidazo[4,5-c]pyridin-2-yl)-1H-pyrazolo[3,4-c]pyridin-5-yl)pyridin-3-yl)methyl)ethanamine]",≤ 9 nM
64 nM,"CCCCC(=O)Nc1cncc(-c2cc3c(-c4nc5c(-c6ccoc6)nccc5[nH]4)n[nH]c3cn2)c1 [Compound 304, N-(5-(3-(4-(Furan-3-yl)-1H-imidazo[4,5-c]pyridin-2-yl)-1H-pyrazolo[3,4-c]pyridin-5-yl)pyridin-3-yl)pentanamide]",≥ 9990 nM
396 nM,"c1cc2[nH]c(-c3n[nH]c4cnc(-c5cncc(CNCC6CCCC6)c5)cc34)nc2c(-c2ccoc2)n1 [Compound 310, 1-Cyclopentyl-N-((5-(3-(4-(furan-3-yl)-1H-imidazo[4,5-c]pyridin-2-yl)-1H-pyrazolo[3,4-c]pyridin-5-yl)pyridin-3-yl)methyl)methanamine]",> 10000 nM
53.4 nM,"CN(C)c1cncc(-c2cc3c(-c4nc5c(-c6cccs6)nccc5[nH]4)n[nH]c3cn2)c1 [Compound 319, N,N-Dimethyl-5-(3-(4-(thiophen-2-yl)-1H-imidazo[4,5-c]pyridin-2-yl)-1H-pyrazolo[3,4-c]pyridin-5-yl)pyridin-3-amine]",≤ 9 nM
> 10000 nM,"CN(C)Cc1cncc(-c2cc3c(-c4nc5c(-c6cccs6)nccc5[nH]4)n[nH]c3cn2)c1 [Compound 325, N,N-Dimethyl-1-(5-(3-(4-(thiophen-2-yl)-1H-imidazo[4,5-c]pyridin-2-yl)-1H-pyrazolo[3,4-c]pyridin-5-yl)pyridin-3-yl)methanamine]",≤ 9 nM
17.3 nM,"CCCC(=O)Nc1cncc(-c2cc3c(-c4nc5c(-c6cccs6)nccc5[nH]4)n[nH]c3cn2)c1 [Compound 329, N-(5-(3-(4-(Thiophen-2-yl)-1H-imidazo[4,5-c]pyridin-2-yl)-1H-pyrazolo[3,4-c]pyridin-5-yl)pyridin-3-yl)butyramide]",≥ 9990 nM
15.2 nM,"FC1(F)CCN(Cc2cncc(-c3cc4c(-c5nc6c(-c7cccs7)nccc6[nH]5)n[nH]c4cn3)c2)C1 [Compound 337, 5-(5-((3,3-Difluoropyrrolidin-1-yl)methyl)pyridin-3-yl)-3-(4-(thiophen-2-yl)-1H-imidazo[4,5-c]pyridin-2-yl)-1H-pyrazolo[3,4-c]pyridine]",≤ 9 nM
31.7 nM,"CC(C)CC(=O)Nc1cncc(-c2cc3c(-c4nc5c(-c6ccc(F)s6)nccc5[nH]4)n[nH]c3cn2)c1 [Compound 340, N-(5-(3-(4-(5-Fluorothiophen-2-yl)-1H-imidazo[4,5-c]pyridin-2-yl)-1H-pyrazolo[3,4-c]pyridin-5-yl)pyridin-3-yl)-3-methylbutanamide]",306 nM
100 nM,"Fc1ccc(-c2nccc3[nH]c(-c4n[nH]c5cnc(-c6cncc(CN7CCCC7)c6)cc45)nc23)s1 [Compound 352, 3-(4-(5-Fluorothiophen-2-yl)-1H-imidazo[4,5-c]pyridin-2-yl)-5-(5-(pyrrolidin-1-ylmethyl)pyridin-3-yl)-1H-pyrazolo[3,4-c]pyridine]",≥ 9990 nM
13.7 nM,"O=C(Nc1cncc(-c2cc3c(-c4nc5c(-c6ccc(F)s6)nccc5[nH]4)n[nH]c3cn2)c1)C1CCC1 [Compound 358, N-(5-(3-(4-(5-Fluorothiophen-2-yl)-1H-imidazo[4,5-c]pyridin-2-yl)-1H-pyrazolo[3,4-c]pyridin-5-yl)pyridin-3-yl)cyclobutanecarboxamide]",40 nM
39.1 nM,"CCNCc1cncc(-c2cc3c(-c4nc5c(-c6ccc(C)s6)nccc5[nH]4)n[nH]c3cn2)c1 [Compound 370, N-((5-(3-(4-(5-Methylthiophen-2-yl)-1H-imidazo[4,5-c]pyridin-2-yl)-1H-pyrazolo[3,4-c]pyridin-5-yl)pyridin-3-yl)methyl)ethanamine]",578 nM
24.6 nM,"Cc1ccc(-c2nccc3[nH]c(-c4n[nH]c5cnc(-c6cncc(NC(=O)C(C)(C)C)c6)cc45)nc23)s1 [Compound 372, N-(5-(3-(4-(5-Methylthiophen-2-yl)-1H-imidazo[4,5-c]pyridin-2-yl)-1H-pyrazolo[3,4-c]pyridin-5-yl)pyridin-3-yl)pivalamide]",1080 nM
9.9 nM,"Cc1ccc(-c2nccc3[nH]c(-c4n[nH]c5cnc(-c6cncc(NC(=O)C(C)C)c6)cc45)nc23)s1 [Compound 373, N-(5-(3-(4-(5-Methylthiophen-2-yl)-1H-imidazo[4,5-c]pyridin-2-yl)-1H-pyrazolo[3,4-c]pyridin-5-yl)pyridin-3-yl)isobutyramide]",≤ 9 nM
73.2 nM,"Cc1ccc(-c2nccc3[nH]c(-c4n[nH]c5cnc(-c6cncc(CN7CCCCC7)c6)cc45)nc23)s1 [Compound 379, 3-(4-(5-Methylthiophen-2-yl)-1H-imidazo[4,5-c]pyridin-2-yl)-5-(5-(piperidin-1-ylmethyl)pyridin-3-yl)-1H-pyrazolo[3,4-c]pyridine]",≤ 9 nM
166 nM,"Cc1ccc(-c2nccc3[nH]c(-c4n[nH]c5cnc(-c6cncc(NC(=O)C7CCCC7)c6)cc45)nc23)s1 [Compound 385, N-(5-(3-(4-(5-Methylthiophen-2-yl)-1H-imidazo[4,5-c]pyridin-2-yl)-1H-pyrazolo[3,4-c]pyridin-5-yl)pyridin-3-yl)cyclopentanecarboxamide]",≤ 9 nM
> 10000 nM,"CC(=O)c1ccc(-c2nccc3[nH]c(-c4n[nH]c5cnc(-c6cncc(NC(=O)Cc7ccccc7)c6)cc45)nc23)s1 [Compound 400, N-(5-(3-(4-(5-Acetylthiophen-2-yl)-1H-imidazo[4,5-c]pyridin-2-yl)-1H-pyrazolo[3,4-c]pyridin-5-yl)pyridin-3-yl)-2-phenylacetamide]",≤ 9 nM
1920 nM,"CC(=O)c1ccc(-c2nccc3[nH]c(-c4n[nH]c5cnc(-c6cncc(NC(=O)CC(C)(C)C)c6)cc45)nc23)s1 [Compound 406, N-(5-(3-(4-(5-Acetylthiophen-2-yl)-1H-imidazo[4,5-c]pyridin-2-yl)-1H-pyrazolo[3,4-c]pyridin-5-yl)pyridin-3-yl)-3,3-dimethylbutanamide]",≥ 9990 nM
> 10000 nM,"CC(=O)c1ccc(-c2nccc3[nH]c(-c4n[nH]c5cnc(-c6cncc(NC(=O)C7CCCCC7)c6)cc45)nc23)s1 [Compound 412, N-(5-(3-(4-(5-Acetylthiophen-2-yl)-1H-imidazo[4,5-c]pyridin-2-yl)-1H-pyrazolo[3,4-c]pyridin-5-yl)pyridin-3-yl)cyclohexanecarboxamide]",≤ 9 nM
> 10000 nM,"CS(=O)(=O)NCc1cc(F)cc(-c2nccc3[nH]c(-c4n[nH]c5cnc(-c6cncc(NC(=O)c7ccccc7)c6)cc45)nc23)c1 [Compound 427, N-(5-(3-(4-(3-Fluoro-5-(methylsulfonamidomethyl)phenyl)-1H-imidazo[4,5-c]pyridin-2-yl)-1H-pyrazolo[3,4-c]pyridin-5-yl)pyridin-3-yl)benzamide]",≥ 9990 nM
